# Reference: US8822520B2, “Substituted bicyclic HCV inhibitors” (Presidio Pharmaceuticals, Inc., priority 2010, dated 2014)
# System: HCV genotype 1b replicon in Huh 7 cells (HCV 1b_Huh-Luc/Neo-ET cell line)
# Experiment: HCV replicon assay (luciferase readout)
# Type: cell-based
# Conditions: Hepatitis C virus, Huh-7, 72 h, read-out: Inhibition of HCV genotype lb
# Description: Biological activity of the compounds of the invention was determined using an HCV replicon assay. The HCV 1b_Huh-Luc/Neo-ET cell line persistently expressing a bicistronic genotype 1b replicon in Huh 7 cells was obtained from ReBLikon GMBH. This cell line was used to test compound inhibition using luciferase enzyme activity readout as a measurement of compound inhibition of replicon levels.
# On Day 1 (the day after plating cells), each compound is added in triplicate to the cells. Plates are incubated for 72 h prior to determining luciferase levels. Enzyme activity was measured using a Bright-Glo Kit (cat. number E2620) manufactured by Promega Corporation. The following equation was used to generate a percent control value for each compound. % Control=(Compound Luciferase Level/Control Luciferase Level)*100
# The EC50 value was determined using GraphPad Prism and the following equation: Y=Bottom asymptote+(Top asymptote−Bottom asymptote)/(1+10^((Log EC50−X)*HillSlope))
# EC50 values of compounds are determined several times in the replicon assay to generate average EC50 values.
row,SMILES,EC50 [nM]
1,COCCOc1cc(-c2ccc(-c3cnc([C@@H]4CCCN4C(=O)[C@@H](NC(=O)OC)C(C)C)[nH]3)cc2)ccc1-c1cnc([C@@H]2CCCN2C(=O)[C@@H](NC(=O)OC)C(C)C)[nH]1 [Compound 53],< 1
2,COCCOc1cc(-c2ccc(-c3cnc([C@@H]4CCCN4C(=O)[C@@H](NC(=O)OC)C(C)C)[nH]3)c(OCCOC)c2)ccc1-c1cnc([C@@H]2CCCN2C(=O)[C@@H](NC(=O)OC)C(C)C)[nH]1 [Compound 54],1 to 9.9
3,COCCOc1cc(-c2cnc([C@@H]3CCCN3C(=O)[C@@H](NC(=O)OC)C(C)C)[nH]2)c(OCCOC)cc1-c1ccc(-c2cnc([C@@H]3CCCN3C(=O)[C@@H](NC(=O)OC)C(C)C)[nH]2)cc1 [Compound 55],< 1
4,COCCOc1c(-c2ccc(-c3cnc([C@@H]4C[C@@H](O)CN4C(=O)[C@@H](NC(=O)OC)C(C)C)[nH]3)cc2)ccc(-c2cnc([C@@H]3CCCN3C(=O)[C@@H](NC(=O)OC)C(C)C)[nH]2)c1OCCOC [Compound 60],< 1
5,COCCOc1cc(-c2cnc([C@@H]3CCCN3C(=O)[C@H](COC)NC(=O)OC)[nH]2)ccc1-c1ccc(-c2cnc([C@@H]3CCCN3C(=O)[C@H](COC)NC(=O)OC)[nH]2)cc1OCCOC [Compound 75],1 to 9.9
6,COCCOc1cc(-c2cnc([C@@H]3CCCN3C(=O)[C@@H](NC(=O)OC)C(C)(C)C)[nH]2)ccc1-c1ccc(-c2cnc([C@@H]3CCCN3C(=O)[C@@H](NC(=O)OC)C(C)(C)C)[nH]2)cc1OCCOC [Compound 76],< 1
7,COCCOc1cc(-c2cnc([C@@H]3CCCN3C(=O)[C@@H](NC(=O)OC)C3CCOCC3)[nH]2)ccc1-c1ccc(-c2cnc([C@@H]3CCCN3C(=O)[C@@H](NC(=O)OC)C3CCOCC3)[nH]2)cc1OCCOC [Compound 77],1 to 9.9
8,COCCOc1cc(-c2cnc([C@@H]3CCCN3C(=O)[C@H](NC(=O)OC)c3ccsc3)[nH]2)ccc1-c1ccc(-c2cnc([C@@H]3CCCN3C(=O)[C@H](NC(=O)OC)c3ccsc3)[nH]2)cc1OCCOC [Compound 78],1 to 9.9
9,COCCOc1cc(-c2cnc([C@@H]3CCCN3C(=O)[C@H](NC(=O)OC)c3cccs3)[nH]2)ccc1-c1ccc(-c2cnc([C@@H]3CCCN3C(=O)[C@H](NC(=O)OC)c3cccs3)[nH]2)cc1OCCOC [Compound 79],< 1
10,COC(=O)N[C@H](C(=O)N1CCC[C@H]1c1ncc(-c2ccc(-c3ccc(-c4cnc([C@@H]5CCCN5C(=O)[C@@H](NC(=O)OC)C(C)C)[nH]4)c4c3OCCOCCOCCO4)cc2)[nH]1)C(C)C [Compound 80],< 1
11,COCCOc1cc(-c2cnc([C@@H]3CCCN3C(=O)[C@@H](c3ccccc3)N(C)C)[nH]2)ccc1-c1ccc(-c2cnc([C@@H]3CCCN3C(=O)[C@@H](c3ccccc3)N(C)C)[nH]2)cc1OCCOC [Compound 81],1 to 9.9
12,COCCOc1cc(-c2cnc([C@@H]3CCCN3C(=O)[C@@H](c3ccccc3)N3CCCC3)[nH]2)ccc1-c1ccc(-c2cnc([C@@H]3CCCN3C(=O)[C@@H](c3ccccc3)N3CCCC3)[nH]2)cc1OCCOC [Compound 82],1 to 9.9
13,COCCOc1cc(-c2cnc([C@@H]3CCCN3C(=O)[C@H](NC(C)=O)c3ccccc3)[nH]2)ccc1-c1ccc(-c2cnc([C@@H]3CCCN3C(=O)[C@H](NC(C)=O)c3ccccc3)[nH]2)cc1OCCOC [Compound 83],1 to 9.9
14,COCCOc1cc(-c2cnc([C@@H]3CCCN3C(=O)[C@H](NS(C)(=O)=O)c3ccccc3)[nH]2)ccc1-c1ccc(-c2cnc([C@@H]3CCCN3C(=O)[C@H](NS(C)(=O)=O)c3ccccc3)[nH]2)cc1OCCOC [Compound 84],1 to 9.9
15,CNC(=O)N[C@@H](C(=O)N1CCC[C@H]1c1ncc(-c2ccc(-c3ccc(-c4cnc([C@@H]5CCCN5C(=O)[C@H](NC(=O)NC)c5ccccc5)[nH]4)cc3OCCOC)c(OCCOC)c2)[nH]1)c1ccccc1 [Compound 85],1 to 9.9
16,COCCOc1cc(-c2cnc([C@@H]3CCCN3C(=O)[C@H](C)NC(=O)OC)[nH]2)ccc1-c1ccc(-c2cnc([C@@H]3CCCN3C(=O)[C@@H](NC(=O)OC)C(C)C)[nH]2)cc1OCCOC [Compound 86],1 to 9.9
17,COCCOc1cc(-c2cnc([C@@H]3CCCN3C(=O)[C@H](COC)NC(=O)OC)[nH]2)ccc1-c1ccc(-c2cnc([C@@H]3CCCN3C(=O)[C@@H](NC(=O)OC)C(C)C)[nH]2)cc1OCCOC [Compound 87],1 to 9.9
18,COCCOc1cc(-c2cnc([C@@H]3CCCN3C(=O)[C@@H](NC(=O)OC)C(C)C)[nH]2)ccc1-c1ccc(-c2cnc([C@@H]3CCCN3C(=O)[C@H](NC(=O)OC)c3ccsc3)[nH]2)cc1OCCOC [Compound 88],< 1
19,COCCOc1cc(-c2cnc([C@@H]3CCCN3C(=O)[C@@H](NC(=O)OC)C(C)C)[nH]2)ccc1-c1ccc(-c2cnc([C@@H]3CCCN3C(=O)[C@H](NC(=O)OC)c3cccs3)[nH]2)cc1OCCOC [Compound 89],< 1
20,COCCOc1cc(-c2cnc([C@@H]3CCCN3C(=O)[C@@H](NC(=O)OC)C(C)C)[nH]2)ccc1-c1ccc(-c2cnc([C@@H]3CCCN3C(=O)[C@@H](c3ccccc3)N(C)C)[nH]2)cc1OCCOC [Compound 90],1 to 9.9
21,COCCOc1c(-c2ccc(-c3cnc([C@@H]4CCCCN4C(=O)[C@@H](NC(=O)OC)C(C)C)[nH]3)cc2)ccc(-c2cnc([C@@H]3CCCCN3C(=O)[C@@H](NC(=O)OC)C(C)C)[nH]2)c1OCCOC [Compound 91],1 to 9.9
22,COCCOc1cc(-c2cnc([C@@H]3CCCN3C(=O)[C@@H](NC(=O)OC)C(C)C)[nH]2)cc(OCCOC)c1-c1ccc(-c2cnc([C@@H]3CCCN3C(=O)[C@@H](NC(=O)OC)C(C)C)[nH]2)cc1 [Compound 92],< 1
